Assay results as given in patent US12281122B1, “PI3K inhibitors” (Cogent Biosciences, Inc., priority 2023, dated 2025).

Key:
[1] = system: T47D (PI3Kα-H1047R) cell line; assay: HTRF phospho-AKT(S473) cell assay in T47D cells; assay type: cell-based, human
Method in brief: (§1)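 Cells plated overnight (T47D in RPMI/10% FBS/0.2 units/mL insulin; SKBR3 in McCoy's 5A/10% FBS), then given 12-point 1:3 compound series (top 5 μM T47D, 10 μM SKBR3; ≤0.5% DMSO) for 2 h at 37° C. SKBR3 stimulated with 70 ng/ml PDGF-BB for final 15 min. Lysate pAKT(S473) by HTRF; IC50 calculated.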

[2] = system: SKBR3 (PI3Kα-Wild Type) cell line; assay: HTRF phospho-AKT(S473) cell assay in SKBR3 cells; assay type: cell-based, human
Method in brief: as §1

[3] = Homo sapiens; T47D (PI3Kα-H1047R) cells, HTRF phospho-AKT(S473), 2 hours compound incubation
[4] = Homo sapiens, SK-BR-3; SKBR3 (PI3Kα-Wild Type) cells, HTRF phospho-AKT(S473), 2 hours compound incubation, PDGF-BB stimulated
[5] = Homo sapiens; HTRF phospho-AKT(S473), T47D (PI3Kα-H1047R) cells, 2 hours compound incubation
[6] = Homo sapiens, SK-BR-3; HTRF phospho-AKT(S473), SKBR3 (PI3Kα-Wild Type) cells, 2 hours compound incubation, PDGF-BB stimulated

Row | IC50 [1, 3] [nM] | IC50 [2, 4] [nM] | IC50 [1, 5] [nM] | IC50 [2, 6] [nM] | Compound
1 | 250 to 500 | ≥ 5000 | – | – | Cc1cc([C@@H](C)Nc2ccc(Cl)nc2C(=O)NS(C)(=O)=O)c2nc(N3CC[C@H](c4ccn(C)n4)CC3(C)C)n(C)c(=O)c2c1 (relative stereo) [Compound 323, 6-chloro-3-(((R)-1-(2-((R*)-2,2-dimethyl-4-(1-methyl-1H-pyrazol-3-yl)piperidin-1-yl)-3,6-dimethyl-4-oxo-3,4-dihydroquinazolin-8-yl)ethyl)amino)-N-(methylsulfonyl) picolinamide]
2 | < 250 | 1000 to 5000 | – | – | Cc1cc([C@@H](C)Nc2ccc(Cl)nc2C(=O)NS(C)(=O)=O)c2nc(N3CCN(c4ccn(C)n4)[C@H](C)C3)n(C)c(=O)c2c1 [Compound 256, 6-chloro-3-(((R)-1-(3,6-dimethyl-2-((R)-3-methyl-4-(1-methyl-1H-pyrazol-3-yl)piperazin-1-yl)-4-oxo-3,4-dihydroquinazolin-8-yl)ethyl)amino)-N-(methylsulfonyl) picolinamide]
3 | – | – | < 250 | 1000 to 5000 | Cc1cc([C@@H](C)Nc2ccc(Cl)nc2C(=O)NS(C)(=O)=O)c2nc(N3C[C@@H]4[C@H](C3)[C@H]4c3cc(C)on3)n(C)c(=O)c2c1 [Compound 665, 6-chloro-3-(((R)-1-(3,6-dimethyl-2-((1R,5S,6R)-6-(5-methylisoxazol-3-yl)-3-azabicyclo[3.1.0]hexan-3-yl)-4-oxo-3,4-dihydroquinazolin-8-yl)ethyl)amino)-N-(methylsulfonyl) picolinamide]
4 | – | – | < 250 | 1000 to 5000 | Cc1cc([C@@H](C)Nc2ccc(Cl)nc2C(=O)NS(C)(=O)=O)c2nc(N3C[C@@H]4[C@H](C3)[C@H]4c3cnc(C(F)F)nc3)n(C)c(=O)c2c1 [Compound 522, 6-chloro-3-(((R)-1-(2-((1R,5S,6S)-6-(2-(difluoromethyl)pyrimidin-5-yl)-3-azabicyclo[3.1.0]hexan-3-yl)-3,6-dimethyl-4-oxo-3,4-dihydroquinazolin-8-yl)ethyl)amino)-N-(methylsulfonyl) picolinamide]
5 | < 250 | 1000 to 5000 | – | – | Cc1cc([C@@H](C)Nc2ccc(Cl)nc2C(=O)NS(C)(=O)=O)c2nc(N3CCC(c4cnc(C)cn4)CC3)n(C)c(=O)c2c1 [Compound 272, (R)-6-chloro-3-((1-(3,6-dimethyl-2-(4-(5-methylpyrazin-2-yl)piperidin-1-yl)-4-oxo-3,4-dihydroquinazolin-8-yl)ethyl)amino)-N-(methylsulfonyl) picolinamide]
6 | < 250 | 1000 to 5000 | – | – | Cc1cc([C@@H](C)Nc2ccc(Cl)nc2C(=O)NS(C)(=O)=O)c2nc(N3C[C@@H]4[C@H](C3)[C@H]4c3cn(C)nc3C)n(C)c(=O)c2c1 [Compound 430, 6-chloro-3-(((R)-1-(2-((1R,5S,6S)-6-(1,3-dimethyl-1H-pyrazol-4-yl)-3-azabicyclo[3.1.0]hexan-3-yl)-3,6-dimethyl-4-oxo-3,4-dihydroquinazolin-8-yl)ethyl)amino)-N-(methylsulfonyl) picolinamide]
7 | – | – | 250 to 500 | ≥ 5000 | COc1cc(N2C[C@@H]3C[C@H]2CN3c2nc3c([C@@H](C)Nc4ccc(Cl)nc4C(=O)NS(C)(=O)=O)cc(C)cc3c(=O)n2C)ccn1 [Compound 637, 6-chloro-3-(((R)-1-(2-((1S,4S)-5-(2-methoxypyridin-4-yl)-2,5-diazabicyclo [2.2.1]heptan-2-yl)-3,6-dimethyl-4-oxo-3,4-dihydroquinazolin-8-yl)ethyl)amino)-N-(methylsulfonyl) picolinamide]
8 | < 250 | 1000 to 5000 | – | – | Cc1cc([C@@H](C)Nc2ccc(Cl)nc2C(=O)NS(C)(=O)=O)c2nc(-c3ccc(-c4cnn(C)c4)nc3)n(C)c(=O)c2c1 [Compound 241, (R)-6-chloro-3-((1-(3,6-dimethyl-2-(6-(1-methyl-1H-pyrazol-4-yl)pyridin-3-yl)-4-oxo-3,4-dihydroquinazolin-8-yl)ethyl)amino)-N-(methylsulfonyl) picolinamide]
9 | – | – | 250 to 500 | ≥ 5000 | Cc1cc([C@@H](C)Nc2ccc(Cl)nc2C(=O)NS(C)(=O)=O)c2nc(N3C[C@@H]4[C@H](C3)[C@H]4c3nc(C)nn3C(F)F)n(C)c(=O)c2c1 [Compound 643, 6-chloro-3-(((R)-1-(2-((1R,5S,6R)-6-(1-(difluoromethyl)-3-methyl-1H-1,2,4-triazol-5-yl)-3-azabicyclo[3.1.0]hexan-3-yl)-3,6-dimethyl-4-oxo-3,4-dihydroquinazolin-8-yl)ethyl)amino)-N-(methylsulfonyl) picolinamide]
10 | < 250 | ≥ 5000 | – | – | Cc1cc([C@@H](C)Nc2ccc(Cl)nc2C(=O)NS(C)(=O)=O)c2nc(N3C[C@H]4C[C@@H](c5ccn(C)n5)[C@@H]3C4)n(C)c(=O)c2c1 [Compound 315, 6-chloro-3-(((R)-1-(3,6-dimethyl-2-((1S,4S,6R)-6-(1-methyl-1H-pyrazol-3-yl)-2-azabicyclo[2.2.1]heptan-2-yl)-4-oxo-3,4-dihydroquinazolin-8-yl)ethyl)amino)-N-(methylsulfonyl) picolinamide]
11 | < 250 | 1000 to 5000 | – | – | Cc1cc([C@@H](C)Nc2ccc(Cl)nc2C(=O)NS(C)(=O)=O)c2nc(N3CC[C@@H](Oc4ccnn4C)C3)n(C)c(=O)c2c1 [Compound 352, 6-chloro-3-(((R)-1-(3,6-dimethyl-2-((R)-3-((1-methyl-1H-pyrazol-5-yl)oxy)pyrrolidin-1-yl)-4-oxo-3,4-dihydroquinazolin-8-yl)ethyl)amino)-N-(methylsulfonyl) picolinamide]
12 | – | – | < 250 | 1000 to 5000 | Cc1cc([C@@H](C)Nc2ccc(Cl)nc2C(=O)NS(C)(=O)=O)c2nc(N3C[C@@H]4[C@H](C3)[C@H]4c3cc4ncccn4n3)n(C)c(=O)c2c1 [Compound 508, 6-chloro-3-(((R)-1-(3,6-dimethyl-4-oxo-2-((1R,5S,6R)-6-(pyrazolo[1,5-a]pyrimidin-2-yl)-3-azabicyclo[3.1.0]hexan-3-yl)-3,4-dihydroquinazolin-8-yl)ethyl)amino)-N-(methylsulfonyl) picolinamide]
13 | – | – | < 250 | ≥ 5000 | [2H]C([2H])([2H])n1cc(F)c(C2CCN(c3nc4c([C@@H](C)Nc5ccc(Cl)nc5C(=O)NS(C)(=O)=O)cc(C)cc4c(=O)n3C)CC2)n1 [Compound 456, (R)-6-chloro-3-((1-(2-(4-(4-fluoro-1-(methyl-d3)-1H-pyrazol-3-yl)piperidin-1-yl)-3,6-dimethyl-4-oxo-3,4-dihydroquinazolin-8-yl)ethyl)amino)-N-(methylsulfonyl) picolinamide]
14 | – | – | < 250 | 1000 to 5000 | Cc1cc([C@@H](C)Nc2ccc(Cl)nc2C(=O)NS(C)(=O)=O)c2nc(N3CCC(n4cc(C)nn4)CC3)n(C)c(=O)c2c1 [Compound 716, (R)-6-chloro-3-((1-(3,6-dimethyl-2-(4-(4-methyl-1H-1,2,3-triazol-1-yl)piperidin-1-yl)-4-oxo-3,4-dihydroquinazolin-8-yl)ethyl)amino)-N-(methylsulfonyl) picolinamide]
15 | < 250 | 1000 to 5000 | – | – | Cc1cc([C@@H](C)Nc2ccc(Cl)nc2C(=O)NS(C)(=O)=O)c2nc(N3CCC[C@@H](c4cnn(C)c4)C3)n(C)c(=O)c2c1 (relative stereo) [Compound 202, 6-chloro-3-(((R)-1-(3,6-dimethyl-2-((R*)-3-(1-methyl-1H-pyrazol-4-yl)piperidin-1-yl)-4-oxo-3,4-dihydroquinazolin-8-yl)ethyl)amino)-N-(methylsulfonyl) picolinamide]
16 | – | – | < 250 | ≥ 5000 | Cc1cc([C@@H](C)Nc2ccc(Cl)nc2C(=O)NS(C)(=O)=O)c2nc(-c3ccc(N4CCN(C)CC4)cc3)n(C)c(=O)c2c1 [Compound 790, (R)-6-chloro-3-((1-(3,6-dimethyl-2-(4-(4-methylpiperazin-1-yl)phenyl)-4-oxo-3,4-dihydroquinazolin-8-yl)ethyl)amino)-N-(methylsulfonyl) picolinamide]
17 | 250 to 500 | 1000 to 5000 | – | – | COc1cncc(C2CCN(c3nc4c([C@@H](C)Nc5ccc(Cl)nc5C(=O)NS(C)(=O)=O)cc(C)cc4c(=O)n3C)CC2)n1 [Compound 400, (R)-6-chloro-3-((1-(2-(4-(6-methoxypyrazin-2-yl)piperidin-1-yl)-3,6-dimethyl-4-oxo-3,4-dihydroquinazolin-8-yl)ethyl)amino)-N-(methylsulfonyl) picolinamide]
18 | – | – | < 250 | 1000 to 5000 | Cc1cc([C@@H](C)Nc2ccc(Cl)nc2C(=O)NS(C)(=O)=O)c2nc(-c3ccc(Nc4cnn(C)c4)c(F)c3)n(C)c(=O)c2c1 [Compound 806, (R)-6-chloro-3-((1-(2-(3-fluoro-4-((1-methyl-1H-pyrazol-4-yl)amino)phenyl)-3,6-dimethyl-4-oxo-3,4-dihydroquinazolin-8-yl)ethyl)amino)-N-(methylsulfonyl) picolinamide]

Row | Compound | IC50 [1, 3] [nM] | IC50 [2, 4] [nM] | IC50 [1, 5] [nM] | IC50 [2, 6] [nM]
19 | CC(=O)N1CC2CCC(C1)N2c1ccc(-c2nc3c([C@@H](C)Nc4ccc(Cl)nc4C(=O)NS(C)(=O)=O)cc(C)cc3c(=O)n2C)cc1F [Compound 801, 3-(((1R)-1-(2-(4-(3-acetyl-3,8-diazabicyclo[3.2.1]octan-8-yl)-3-fluorophenyl)-3,6-dimethyl-4-oxo-3,4-dihydroquinazolin-8-yl)ethyl)amino)-6-chloro-N-(methylsulfonyl) picolinamide] | – | – | < 250 | ≥ 5000
